Experimental findings from ChEMBL document CHEMBL6177945, “Dyad System of BOAHY-BODIPY Conjugates as Novel Photoswitchable Photosensitizers for Photodynamic Therapy” (J Med Chem, 2025) are described below.

The structures appear in SMILES notation. Calls of active or inactive are those of the source. The calls are words filed in the database; no cut-off is given here.

A word on the IC50: it is the point on the concentration scale where inhibition reaches its midpoint.

Data set [1] deals with HeLa. Kind of data set: Cytotoxicity against human HeLa cells up to 100 uM incubated for 4 hrs by MTT assay. In kind it is toxicity, cell-based. (Formazan colour is commonly taken as a measure of viable cells.)
Data set [2] concerns HeLa. Kind of data set: Photocytotoxicity against human HeLa cells at 10 uM incubated with compound for 30 mins under 365 nm UV light for 5 mins followed white LED exposure for 10 mins and measured after 20 hrs post-illumination by MTT assay. As to conditions: time 20.75 hrs. The class given is functional, cell-based.
The nature of data set [3]: Induction of type-1 ROS generation in PBS assessed as increase in superoxide anion radical by measuring increase in DHR123 fluorescence intensity at 10 uM irradiated with 450 to 800 nm 40.8 mW cm^-2 light up to 10 mins by DHR123 fluorescence based analysis. In kind it is functional.
A short description of data set [4]: Induction of type-II ROS generation in PBS assessed as increase in singlet oxygen by measuring ABDA absorption at 20 uM irradiated with 450 to 800 nm 40.8 mW cm^-2 light up to 10 mins by ABDA based UV-vis absorption spectrophotometric analysis. In kind it is functional.
Data set [5] deals with HeLa. As to the kind of experiment: Photocytotoxicity in human HeLa cells at 10 uM incubated for 30 mins irradiated with 450 to 800 nm 40.8 mW cm^-2 white LED light and measured after 20 hrs by MTT assay. The class given is functional, cell-based. The settings on record: time 20.5 hrs.
Data set [6] relates to HeLa. Kind of data set: Upregulation of cellular redox metabolism related proteins in human HeLa cells under white light irradiation exposure by GO analysis. The class given is functional, cell-based.
In data set [7] the test system is HeLa. As to the kind of experiment: Photocytotoxicity against human HeLa cells at 10 uM incubated with compound for 30 mins under 365 nm UV light for 1 mins followed white LED exposure for 2 mins and measured after 20 hrs post-illumination by MTT assay. In kind it is functional, cell-based. The settings on record: time 20.55 hrs.
The subject of data set [8] is HeLa. As to the kind of experiment: Upregulation of ROS generation related proteins in human HeLa cells under white light irradiation exposure by GO analysis. The class given is functional, cell-based.
In data set [9] the test system is HeLa. Kind of data set: Photocytotoxicity against human HeLa cells at 10 uM incubated with compound for 30 mins under 365 nm UV light for 1 mins and measured after 20 hrs post-illumination by MTT assay. The settings on record: time 20.51 hrs. The class given is functional, cell-based.
A short description of data set [10]: Phototoxicity in human HeLa cells assessed as cell viability under white LED light for 10 mins. The class given is functional, cell-based. As to conditions: light or radiation study.
Data set [11] can be described thus: Induction of type-II ROS generation in PBS assessed as increase in singlet oxygen by measuring ABDA absorption under white lamp exposure for 10 mins and UV light for 15 mins followed by white lamp exposure for another 10 mins by ABDA based UV-vis absorption spectrophotometric analysis. The settings on record: time 35.0 min. In kind it is functional.
A short description of data set [12]: Induction of type-1 ROS generation in PBS assessed as increase in superoxide anion radical by measuring increase in DHR123 fluorescence intensity under white lamp exposure for 10 mins and UV light for 15 mins followed by white lamp exposure for another 10 mins by DHR123 fluorescence based analysis. The settings on record: time 35.0 min. The class given is functional.

For the molecule `CC1=C(/C=[N+]2\N=C(c3ccccc3)O[B-]2(F)F)C(C)=[N+]2C1=C(c1ccccc1)c1c(C)c(/C=[N+]3\N=C(c4ccccc4)O[B-]3(F)F)c(C)n1[B-]2(F)F`, the Activity result with HeLa [1] was “Non-toxic”. Also, the outcome (in the data set on HeLa [2]; in data set [3]) was Active.

Take `CC1=CC(C)=[N+]2C1=C(c1ccccc1)c1c(C)c(/C=[N+]3/N=C(c4ccc([N+](=O)[O-])cc4)O[B-]3(F)F)c(C)n1[B-]2(F)F`: the outcome with HeLa [2] was Active.

On to `CC1=CC(C)=[N+]2C1=C(c1ccccc1)c1c(C)c(/C=[N+]3\N=C(c4ccc([N+](=O)[O-])cc4)O[B-]3(F)F)c(C)n1[B-]2(F)F`, for which the Activity entry in [4] was “Not active; Slight Changes In Abda Absorption Observed”; in the data set with HeLa [1], “Non-toxic”. In addition, in data set [3], the outcome was Active.

For `CC1=C(I)C(C)=[N+]2C1=C(c1ccccc1)c1c(C)c(/C=[N+]3\N=C(c4ccc([N+](=O)[O-])cc4)O[B-]3(F)F)c(C)n1[B-]2(F)F`, the outcome in data set [3] was Active.

In the case of `CC1=CC(C)=[N+]2C1=C(c1ccccc1)c1c(C)c(/C=[N+]3\N=C(c4ccccc4)O[B-]3(F)F)c(C)n1[B-]2(F)F`, the Activity result in [4] was “Not active; Slight Changes In Abda Absorption Observed”; with HeLa [1], “Non-toxic”. The result (with HeLa [5]; in data set [3]) was Active.

For `COc1ccc(C2=N/[N+](=C\c3c(C)c4n(c3C)[B-](F)(F)[N+]3=C(C)C(I)=C(C)C3=C4c3ccccc3)[B-](F)(F)O2)cc1`, the result (in data set [3]; with HeLa [6]; with HeLa [7]; in the data set on HeLa [8]) was Active.

For the molecule `CC1=C(I)C(C)=[N+]2C1=C(c1ccccc1)c1c(C)c(/C=[N+]3\N=C(c4ccccc4)O[B-]3(F)F)c(C)n1[B-]2(F)F`, the outcome (in data set [4]; in [3]; with HeLa [9]) was Active. In [10], the IC50 is 3.38 µM.

`CC1=CC(C)=[N+]2C1=C(c1ccccc1)c1c(C)c(/C=[N+]3/N=C(c4ccccc4)O[B-]3(F)F)c(C)n1[B-]2(F)F`: the result (in data set [11]; with HeLa [2]; in [12]) was Active.

In the case of `COc1ccc(C2=N/[N+](=C\c3c(C)c4n(c3C)[B-](F)(F)[N+]3=C(C)C=C(C)C3=C4c3ccccc3)[B-](F)(F)O2)cc1`, the Activity entry was “Not active; Slight Changes In Abda Absorption Observed” in data set [4] and “Non-toxic” in the data set with HeLa [1]. The result (in the data set on HeLa [5]; in [3]) was Active.

Consider `COc1ccc(C2=N/[N+](=C/c3c(C)c4n(c3C)[B-](F)(F)[N+]3=C(C)C=C(C)C3=C4c3ccccc3)[B-](F)(F)O2)cc1`, for which the result (in data set [11]; with HeLa [2]; in data set [12]) was Active.

On to `COc1ccc(C2=N/[N+](=C\C3=C(C)C4=C(c5ccccc5)c5c(C)c(/C=[N+]6\N=C(c7ccc(OC)cc7)O[B-]6(F)F)c(C)n5[B-](F)(F)[N+]4=C3C)[B-](F)(F)O2)cc1`, for which, in the data set with HeLa [1], the Activity result is listed as “Non-toxic”. In addition, the outcome in the data set on HeLa [2] was Active.
